# Data from PubChem BioAssay (NCI).
#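 Compound exposure: 48 hours, 5 concentrations, 96-well plates. TGI denotes the concentration required for complete inhibition of growth.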
# What was measured:
# Test in all cases: NCI tumour cell line growth inhibition, 48 h
# DU-145 prostate = test system: DU-145 prostate
# HCT-15 colon = test system: HCT-15 colon
# OVCAR-3 ovarian = test system: OVCAR-3 ovarian
# MDA-MB-231 breast = test system: MDA-MB-231 breast
# NCI-H23 lung = test system: NCI-H23 lung
# COLO 205 colon = test system: COLO 205 colon
# HOP-62 NSCLC = test system: HOP-62 NSCLC
# OVCAR-5 ovarian = test system: OVCAR-5 ovarian
# SW-620 colon = test system: SW-620 colon
# RPMI-8226 leukemia = test system: RPMI-8226 leukemia
# SN12C renal = test system: SN12C renal
# HT29 colon = test system: HT29 colon
# SK-MEL-28 melanoma = test system: SK-MEL-28 melanoma
# SK-OV-3 ovarian = test system: SK-OV-3 ovarian
# KM12 colon = test system: KM12 colon
# NCI/ADR-RES ovarian = test system: NCI/ADR-RES ovarian
# HOP-92 NSCLC = test system: HOP-92 NSCLC
# ACHN renal = test system: ACHN renal
# A549 NSCLC = test system: A549 NSCLC
# CCRF-CEM leukemia = test system: CCRF-CEM leukemia
# MOLT-4 leukemia = test system: MOLT-4 leukemia
# UACC-257 melanoma = test system: UACC-257 melanoma
# IGROV1 ovarian = test system: IGROV1 ovarian
# TK-10 renal = test system: TK-10 renal
# UACC-62 melanoma = test system: UACC-62 melanoma
# NCI-H460 lung = test system: NCI-H460 lung
# U251 CNS = test system: U251 CNS
# SF-539 CNS = test system: SF-539 CNS
# A498 renal = test system: A498 renal
# EKVX NSCLC = test system: EKVX NSCLC
# HCT-116 colon = test system: HCT-116 colon
# UO-31 renal = test system: UO-31 renal
# SK-MEL-5 melanoma = test system: SK-MEL-5 melanoma
# CAKI-1 renal = test system: CAKI-1 renal
# SNB-19 CNS = test system: SNB-19 CNS
# MDA-N = test system: MDA-N
# HL-60(TB) leukemia = test system: HL-60(TB) leukemia
# SK-MEL-2 melanoma = test system: SK-MEL-2 melanoma
# RXF 393 renal = test system: RXF 393 renal
# M14 melanoma = test system: M14 melanoma
# HS 578T breast = test system: HS 578T breast
# NCI-H226 lung = test system: NCI-H226 lung
# T-47D breast = test system: T-47D breast
# SF-295 CNS = test system: SF-295 CNS
# SF-268 CNS = test system: SF-268 CNS
# K-562 leukemia = test system: K-562 leukemia
# PC-3 prostate = test system: PC-3 prostate
# MCF7 breast = test system: MCF7 breast
# 786-0 renal = test system: 786-0 renal
# MDA-MB-435 = test system: MDA-MB-435
# OVCAR-8 ovarian = test system: OVCAR-8 ovarian
# SNB-75 CNS = test system: SNB-75 CNS
# LOX IMVI melanoma = test system: LOX IMVI melanoma
# OVCAR-4 ovarian = test system: OVCAR-4 ovarian
# NCI-H522 lung = test system: NCI-H522 lung
# BT-549 breast = test system: BT-549 breast
# SR leukemia = test system: SR leukemia
# HCC-2998 colon = test system: HCC-2998 colon
smiles,measurement,setting,value
O=C1C=CC(O)(C#CCO)C=C1,TGI,DU-145 prostate,31.6 µM
same,TGI,HCT-15 colon,10.1 µM
same,TGI,OVCAR-3 ovarian,31 µM
same,TGI,MDA-MB-231 breast,33.7 µM
same,TGI,NCI-H23 lung,34.5 µM
same,TGI,COLO 205 colon,> 50.2 µM
same,TGI,HOP-62 NSCLC,71.7 µM
same,TGI,OVCAR-5 ovarian,26.9 µM
same,TGI,SW-620 colon,15.3 µM
same,TGI,RPMI-8226 leukemia,22 µM
same,TGI,SN12C renal,30.6 µM
same,TGI,HT29 colon,29.7 µM
same,TGI,SK-MEL-28 melanoma,25.5 µM
same,TGI,SK-OV-3 ovarian,> 100 µM
same,TGI,KM12 colon,32.6 µM
same,TGI,NCI/ADR-RES ovarian,30.3 µM
same,TGI,HOP-92 NSCLC,5.8 µM
same,TGI,ACHN renal,26.6 µM
same,TGI,A549 NSCLC,> 60.2 µM
same,TGI,CCRF-CEM leukemia,62.2 µM
same,TGI,MOLT-4 leukemia,> 100 µM
same,TGI,UACC-257 melanoma,27.7 µM
same,TGI,IGROV1 ovarian,25.6 µM
same,TGI,TK-10 renal,25.8 µM
same,TGI,UACC-62 melanoma,29.3 µM
same,TGI,NCI-H460 lung,48.8 µM
same,TGI,U251 CNS,23.8 µM
same,TGI,SF-539 CNS,30.8 µM
same,TGI,A498 renal,46 µM
same,TGI,EKVX NSCLC,40.3 µM
same,TGI,HCT-116 colon,> 53.9 µM
same,TGI,UO-31 renal,32.3 µM
same,TGI,SK-MEL-5 melanoma,> 100 µM
same,TGI,CAKI-1 renal,10.8 µM
same,TGI,SNB-19 CNS,> 56.8 µM
same,TGI,MDA-N,23 µM
same,TGI,HL-60(TB) leukemia,15.8 µM
same,TGI,SK-MEL-2 melanoma,33.2 µM
same,TGI,RXF 393 renal,10.8 µM
same,TGI,M14 melanoma,44 µM
same,TGI,HS 578T breast,> 76.5 µM
same,TGI,NCI-H226 lung,28.1 µM
same,TGI,T-47D breast,41.6 µM
same,TGI,SF-295 CNS,> 100 µM
same,TGI,SF-268 CNS,34.1 µM
same,TGI,K-562 leukemia,> 100 µM
same,TGI,PC-3 prostate,31.8 µM
same,TGI,MCF7 breast,18.5 µM
same,TGI,786-0 renal,> 42 µM
same,TGI,MDA-MB-435,26.9 µM
same,TGI,OVCAR-8 ovarian,39.7 µM
same,TGI,SNB-75 CNS,37.4 µM
same,TGI,LOX IMVI melanoma,23.3 µM
same,TGI,OVCAR-4 ovarian,25.9 µM
same,TGI,NCI-H522 lung,4.16 µM
same,TGI,BT-549 breast,26.7 µM
same,TGI,SR leukemia,> 100 µM
same,TGI,HCC-2998 colon,31.3 µM
